Tests used:
human orexin-1 receptor = target: T1, human orexin-1 receptor (Homo sapiens, UniProt O43613); assay: Intracellular calcium measurements (FLIPR), orexin receptor antagonistic activity, OX1; format: cell-based; settings: CHO cells expressing human orexin-1 receptor, 3 nM orexin-A
T1 construct: expressed in transfected cells; host or cells: CHO cells (G418 selection)
T1 sequence (O43613 1-425): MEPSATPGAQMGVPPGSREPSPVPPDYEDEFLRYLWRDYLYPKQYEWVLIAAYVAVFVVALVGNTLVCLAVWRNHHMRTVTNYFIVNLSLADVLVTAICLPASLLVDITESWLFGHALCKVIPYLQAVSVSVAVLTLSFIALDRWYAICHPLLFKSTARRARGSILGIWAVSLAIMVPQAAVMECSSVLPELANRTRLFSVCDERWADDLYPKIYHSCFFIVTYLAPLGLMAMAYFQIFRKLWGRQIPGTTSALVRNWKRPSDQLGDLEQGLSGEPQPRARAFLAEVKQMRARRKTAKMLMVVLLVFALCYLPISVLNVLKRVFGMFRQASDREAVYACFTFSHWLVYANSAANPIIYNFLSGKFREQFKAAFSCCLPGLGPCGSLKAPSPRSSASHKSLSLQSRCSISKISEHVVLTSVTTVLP
Procedure: (§1) The orexin receptor antagonistic activity of the compounds of formula (I) is determined in accordance with the following experimental method.
(§2) Intracellular Calcium Measurements:
(§3) Chinese hamster ovary (CHO) cells expressing the human orexin-1 receptor and the human orexin-2 receptor, respectively, are grown in culture medium (Ham F-12 with L-Glutamine) containing 300 μg/ml G418, 100 U/ml penicillin, 100 μg/ml streptomycin and 10% heat inactivated fetal calf serum (FCS). The cells are seeded at 20,000 cells/well into 384-well black clear bottom sterile plates (Greiner). The seeded plates are incubated overnight at 37° C. in 5% CO2.
(§4) Human orexin-A as an agonist is prepared as 1 mM stock solution in MeOH:water (1:1), diluted in HBSS containing 0.1% bovine serum albumin (BSA), NaHCO3: 0.375 g/l and 20 mM HEPES for use in the assay at a final concentration of 3 nM.
(§5) Antagonists are prepared as 10 mM stock solution in DMSO, then diluted in 384-well plates using DMSO followed by a transfer of the dilutions into in HBSS containing 0.1% bovine serum albumin (BSA), NaHCO3: 0.375 g/l and 20 mM HEPES. On the day of the assay, 50 μl of staining buffer (HBSS containing 1% FCS, 20 mM HEPES, NaHCO3: 0.375 g/l, 5 mM probenecid (Sigma) and 3 μM of the fluorescent calcium indicator fluo-4 AM (1 mM stock solution in DMSO, containing 10% pluronic) is added to each well. The 384-well cell-plates are incubated for 50 min at 37° C. in 5% CO2 followed by equilibration at rt for 30-120 min before measurement.
(§6) Within the Fluorescent Imaging Plate Reader (FLIPR2 or FLIPR Tetra, Molecular Devices), antagonists are added to the plate in a volume of […], incubated for 10 min and finally 10 μl/well of agonist is added. Fluorescence is measured for each well at 1 second intervals, and the height of each fluorescence peak is compared to the height of the fluorescence peak induced by 3 nM orexin-A with vehicle in place of antagonist. For each antagonist, the IC50 value (the concentration of compound needed to inhibit 50% of the agonistic response) is determined. With the FLIPR Tetra, non-optimized and optimized conditions were used. Optimized conditions were achieved by adjustment of pipetting speed and cell splitting regime. The calculated IC50 values of the compounds may fluctuate depending on the daily cellular assay performance. Fluctuations of this kind are known to those skilled in the art.

human orexin-2 receptor = target: T2, human orexin-2 receptor (Homo sapiens, UniProt O43614); assay: Intracellular calcium measurements (FLIPR), orexin receptor antagonistic activity, OX2; format: cell-based; settings: CHO cells expressing human orexin-2 receptor, 3 nM orexin-A
T2 construct: expressed in transfected cells; host or cells: CHO cells (G418 selection)
T2 sequence (O43614 1-444): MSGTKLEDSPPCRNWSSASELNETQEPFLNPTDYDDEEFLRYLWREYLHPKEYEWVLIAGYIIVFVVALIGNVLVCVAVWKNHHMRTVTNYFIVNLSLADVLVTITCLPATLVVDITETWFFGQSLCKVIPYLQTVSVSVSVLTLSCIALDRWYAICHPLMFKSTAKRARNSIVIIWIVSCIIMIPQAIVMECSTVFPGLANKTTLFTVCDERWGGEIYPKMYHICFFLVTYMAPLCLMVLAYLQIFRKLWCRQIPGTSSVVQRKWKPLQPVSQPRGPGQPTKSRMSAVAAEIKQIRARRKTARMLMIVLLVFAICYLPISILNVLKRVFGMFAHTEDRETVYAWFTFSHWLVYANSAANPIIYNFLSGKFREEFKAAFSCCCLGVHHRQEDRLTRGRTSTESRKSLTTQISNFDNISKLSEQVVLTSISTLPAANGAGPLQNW
Procedure: as §1, §2, §3, §4, §5, §6

[1] = FLIPR Tetra, non-optimized conditions
[2] = FLIPR Tetra, optimized conditions

## Cc1cccc(-c2sc(C)nc2C(=O)N2C[C@@H]3CC(C)C[C@@H]3[C@H]2CNC(=O)c2noc3ccccc23)c1 (stereo partly drawn) [Example 7, Benzo[d]isoxazole-3-carboxylic acid-(1S,2S,5R)-[7-methyl-3-(2-methyl-5-m-tolyl-thiazole-4-carbonyl)-3-aza-bicyclo[3.3.0]oct-2-ylmethyl]-amide]
Human orexin-1 receptor; FLIPR2
  IC50: 0.012 µM
Human orexin-2 receptor; FLIPR2
  IC50: 0.013 µM

## COc1cccc(-c2sc(C)nc2C(=O)N2C[C@@H]3CCC[C@@H]3[C@H]2CNC(=O)c2c(C)nc3sccn23)c1 [Example 33, 6-Methyl-imidazo[2,1-b]thiazole-5-carboxylic acid-(1S,2S,5R)-{3-[5-(3-methoxy-phenyl)-2-methyl-thiazole-4-carbonyl]-3-aza-bicyclo[3.3.0]oct-2-ylmethyl}-amide]
Human orexin-1 receptor; [1]
  IC50: 0.008 µM
Human orexin-2 receptor; [1]
  IC50: 0.017 µM

## Cc1cccc(-c2sc(C)nc2C(=O)N2C[C@@H]3CC(C)C[C@@H]3[C@H]2CNC(=O)c2cc(Cl)ccn2)c1 (stereo partly drawn) [Example 25, 4-Chloro-pyridine-2-carboxylic acid-(1S,2S,5R)-[7-methyl-3-(2-methyl-5-m-tolyl-thiazole-4-carbonyl)-3-aza-bicyclo[3.3.0]oct-2-ylmethyl]-amide]
Human orexin-1 receptor; FLIPR2
  IC50: 0.024 µM
Human orexin-2 receptor; FLIPR2
  IC50: 0.048 µM

## Cc1cccc(C(=O)NC[C@@H]2[C@H]3CC(C)C[C@H]3CN2C(=O)c2nc(C)sc2-c2cccc(C)c2)c1 (stereo partly drawn) [Example 19, (1S,2S,5R)-3-Methyl-N-[7-methyl-3-(2-methyl-5-m-tolyl-thiazole-4-carbonyl)-3-aza-bicyclo[3.3.0]oct-2-ylmethyl]-benzamide]
Human orexin-1 receptor; FLIPR2
  IC50: 0.077 µM
Human orexin-2 receptor; FLIPR2
  IC50: 0.047 µM

## Cc1cccc(-c2sc(C)nc2C(=O)N2C[C@@H]3CC(C)C[C@@H]3[C@H]2CNC(=O)c2c(C)noc2C)c1 (stereo partly drawn) [Example 6, 3,5-Dimethyl-isoxazole-4-carboxylic acid-(1S,2S,5R)-[7-methyl-3-(2-methyl-5-m-tolyl-thiazole-4-carbonyl)-3-aza-bicyclo[3.3.0]-2-ylmethyl]-amide]
Human orexin-1 receptor; FLIPR2
  IC50: 0.059 µM
Human orexin-2 receptor; FLIPR2
  IC50: 0.114 µM

## Cc1nc2sccn2c1C(=O)NC[C@@H]1[C@H]2CCC[C@H]2CN1C(=O)c1ccccc1-c1ccccc1 [Example 60, 6-Methyl-imidazo[2,1-b]thiazole-5-carboxylic acid-(1S,2S,5R)-[3-(biphenyl-2-carbonyl)-3-aza-bicyclo[3.3.0]oct-2-ylmethyl]-amide]
Human orexin-1 receptor; [1]
  IC50: 0.016 µM
Human orexin-2 receptor; [1]
  IC50: 0.021 µM

## Cc1nc(C(=O)N2C[C@@H]3CC(C)C[C@@H]3[C@H]2CNC(=O)c2c(C)nc3sccn23)c(-c2cccc(C(F)(F)F)c2)s1 (stereo partly drawn) [Example 36, 6-Methyl-imidazo[2,1-b]thiazole-5-carboxylic acid-(1S,2S,5R)-{7-methyl-3-[2-methyl-5-(3-trifluoromethyl-phenyl)-thiazole-4-carbonyl]-3-aza-bicyclo[3.3.0]oct-2-ylmethyl}-amide]
Human orexin-1 receptor; [1]
  IC50: 0.044 µM
Human orexin-2 receptor; [1]
  IC50: 0.262 µM

## Cc1cccc(-c2sc(C)nc2C(=O)N2C[C@@H]3CC(C)C[C@@H]3[C@H]2CNC(=O)c2cnc3sccn23)c1 (stereo partly drawn) [Example 11, Imidazo[2,1-b]thiazole-5-carboxylic acid-(1S,2S,5R)-[7-methyl-3-(2-methyl-5-m-tolyl-thiazole-4-carbonyl)-3-aza-bicyclo[3.3.0]oct-2-ylmethyl]-amide]
Human orexin-1 receptor; FLIPR2
  IC50: 0.007 µM
Human orexin-2 receptor; FLIPR2
  IC50: 0.009 µM

## Cc1nc(C(=O)N2C[C@@H]3CC(C)C[C@@H]3[C@H]2CNC(=O)c2c(C)nc3sccn23)c(-c2ccc(F)c(F)c2)s1 (stereo partly drawn) [Example 51, 6-Methyl-imidazo[2,1-b]thiazole-5-carboxylic acid-(1S,2S,5R)-{3-[5-(3,4-difluoro-phenyl)-2-methyl-thiazole-4-carbonyl]-7-methyl-3-aza-bicyclo[3.3.0]oct-2-ylmethyl}-amide]
Human orexin-1 receptor; [1]
  IC50: 0.033 µM
Human orexin-2 receptor; [1]
  IC50: 0.094 µM

## Cc1cccc(-c2sc(C)nc2C(=O)N2C[C@@H]3CC(F)(F)C[C@@H]3[C@H]2CNC(=O)c2c(C)nc3sccn23)c1 [Example 85, 6-Methyl-imidazo[2,1-b]-thiazole-5-carboxylic acid-(1S,2S,5R)-[7,7-difluoro-3-(2-methyl-5-m-tolyl-thiazole-4-carbonyl)-3-aza-bicyclo[3.3.0]oct-2-ylmethyl]-amide]
Human orexin-1 receptor; [2]
  IC50: 0.007 µM
Human orexin-2 receptor; [2]
  IC50: 0.018 µM

## Cc1cccc(-c2sc(C)nc2C(=O)N2C[C@@H]3CC(F)(F)C[C@@H]3[C@H]2CNC(=O)c2cccc3c2CCO3)c1 [Example 79, 2,3-Dihydro-benzofuran-4-carboxylic acid-(1S,2S,5R)-[7,7-difluoro-3-(2-methyl-5-m-tolyl-thiazole-4-carbonyl)-3-aza-bicyclo[3.3.0]oct-2-ylmethyl]-amide]
Human orexin-1 receptor; [2]
  IC50: 0.008 µM
Human orexin-2 receptor; [2]
  IC50: 0.02 µM

## Cc1nc2sccn2c1C(=O)NC[C@@H]1[C@H]2CCC[C@H]2CN1C(=O)c1nc(N)sc1-c1cccc(F)c1 [Example 70, 6-Methyl-imidazo[2,1-b]thiazole-5-carboxylic acid-(1S,2S,5R)-{3-[2-amino-5-(3-fluoro-phenyl)-thiazole-4-carbonyl]-3-aza-bicyclo[3.3.0]oct-2-ylmethyl}-amide]
Human orexin-1 receptor; [1]
  IC50: 0.017 µM
Human orexin-2 receptor; [1]
  IC50: 0.02 µM

## Cc1cccc(-c2sc(C)nc2C(=O)N2C[C@@H]3CC(F)(F)C[C@@H]3[C@H]2CNC(=O)c2cccc3ncsc23)c1 [Example 81, Benzothiazole-7-carboxylic acid-(1S,2S,5R)-[7,7-difluoro-3-(2-methyl-5-m-tolyl-thiazole-4-carbonyl)-3-aza-bicyclo[3.3.0]oct-2-ylmethyl]-amide]
Human orexin-1 receptor; [2]
  IC50: 0.006 µM
Human orexin-2 receptor; [2]
  IC50: 0.01 µM
